Key:
[1] = test system: NCI-H23; assay: NCI-60 screening, one-dose (10 µM) and five-dose, SRB; format: cell-based, human; conditions: five-dose, NCI-H23
[2] = test system: HCT-15; assay: as above; format: cell-based, human
[3] = test system: LOX IMVI; assay: as above; format: cell-based, human; conditions: five-dose
[4] = test system: MALME-3M; assay: as above; format: cell-based, human
[5] = test system: NCI-H322M; assay: as above; format: cell-based, human
[6] = test system: MDA-MB-468; assay: as above; format: cell-based, human; conditions: Homo sapiens
From the text: Control cells Test cells FLD
available usually at NCI library.
An aliquot of frozen drug concentrate is […]

[7] = test system: OVCAR-3; assay: as above; format: cell-based
[8] = test system: HCC-2998; assay: as above; format: cell-based, human
[9] = test system: SK-MEL-2; assay: as above; format: cell-based, human
[10] = test system: SN12C; assay: as above; format: cell-based, human
[11] = test system: RPMI-8226; assay: as above; format: cell-based, human
[12] = test system: A549/ATCC; assay: as above; format: cell-based, human
[13] = test system: HL-60(TB); assay: as above; format: cell-based, human
[14] = test system: Non-Small-Cell Lung Cancer cell lines; assay: NCI five-dose testing, subpanel (MID b, selectivity)
From the text: The log10 GI50, log10 TGI, and log10 LC50 values were subsequently calculated as the averages of the log10 values of the respective individual GI50, TGI, and LC50 measurements. Negative numbers signified the most sensitive cell lines.
One way to measure a compound’s selectivity is to divide its subpanel MID^b (in μM) by the MID^a (in μM), which is the average sensitivity of all cell lines to the test agent.
At the National Cancer Institute (NCI) in Bethesda, USA, researchers examined the anticancer potential of the target compounds under investigation using nine panels of sixty different cell lines obtained from nine different cancers that were housed in the NCI library. […] The anticancer screening was carried out at a single dose of 10^−5 M; the results obtained were expressed as growth inhibition (%).
The anti-cancer potential of the tested compounds was evaluated at the National cancer institute (NCI), Bethesda, USA, against 9 panels of 60 various cell lines derived from nine human tumours available usually at NCI library. […] The anticancer screening was carried out at single dose of 10^-5 M. The results obtained as growth inhibition (%).
Cell lines were grown in Roswell Park Memorial Institute medium (RPMI) with 5% fetal bovine serum and 2% μM L-glutamine. Cancer cells are inoculated into 96 well microtiter plates in 100 μL at plating densities ranging from 5000 to 40,000 cells/well depending on the doubling time of individual cell lines. Then microtiter plates are incubated at 37 °C, 5% CO2, 95% air and 100% relative humidity for 24 h prior to the addition of the tested compounds. After 24 h, two plates of each cell line are fixed in situ with trichloroacetic acid (TCA). The tested compounds were dissolved in dimethyl sulfoxide (DMSO) and stored in the freezer prior to use. An aliquot of frozen drug concentrate is diluted to the desired concentration with complete medium containing 50 μg/mL gentamicin.
compounds were added to the microtiter plates followed by incubation for further 48 h at 37 °C, 5% CO2, 95% air and 100% relative humidity. Fixation of cancer cell lines is carried out through gentle addition of 50 μL of cold 50 %w/v TCA (final concentration, 10% TCA) then incubated for 60 min. at 4 °C. The plates are washed five times with tap water after getting rid of the supernatant and allowed to dry in air. Sulforhodamine B (SRB) solution (100 μL) at 0.4% w/v in 1% acetic

[15] = test system: RXF 393; assay: NCI-60 screening, one-dose (10 µM) and five-dose, SRB; format: cell-based; conditions: Homo sapiens; 10 μM; RXF 393, Renal Cancer; read-out: Growth percentage
[16] = test system: SW-620; assay: as above; format: cell-based, human
[17] = Homo sapiens, five-dose, HCT-15
[18] = Homo sapiens, five-dose, read-out: LC50 (the source's name)
[19] = Homo sapiens, five-dose, OVCAR-3
[20] = Homo sapiens, five-dose, HCC-2998
[21] = Homo sapiens, five-dose, SK-MEL-2
[22] = Homo sapiens, five-dose, SW-620

SMILES: Cc1nc(SCC(=O)N2CCN(c3cc4c(cc3F)c(=O)c(C(=O)O)cn4C3CC3)CC2)sc1C(=O)/C=C/c1cccc(F)c1 [Compound 4d, (E)-1-Cyclopropyl-6-fluoro-7-(4-(2-((5-(3-(3-fluorophenyl)acryloyl)-4-methylthiazol-2-yl)thio)acetyl)piperazin-1-yl)-4-oxo-1,4-dihydroquinoline-3-carboxylic Acid]
- IC50 ([1]; Homo sapiens): > 100 µM
- LC50 (50% lethal concentration) ([1]; Homo sapiens): > 100 µM
- TGI [1]: 100.0 µM
- activity at 10 µM ([2]; Homo sapiens, 10 μM, HCT-15, Colon Cancer, read-out: Growth percentage): -41.7%
- GI50 [2, 17]: 33.9 µM
- IC50 [2, 17]: 53.7 µM
- LC50 (50% lethal concentration) [2, 17]: > 100 µM
- TGI ([2]; five-dose, HCT-15): 100.0 µM
- GI50 ([3]; Homo sapiens): 2.8 µM
- IC50 ([3]; Homo sapiens): 4.1 µM
- CC50 ([3]; Homo sapiens, read-out: LC50 (the source's name)): > 100 µM
- TGI [3]: 100.0 µM
- Growth percentage ([4]; 10 μM, Melanoma): 106.8%
- GI50 ([4]; Homo sapiens, five-dose): > 100 µM
- IC50 ([4]; Homo sapiens, five-dose): > 100 µM
- CC50 [4, 18]: > 100 µM
- TGI ([4]; five-dose): 100.0 µM
- Growth percentage ([5]; 10 μM, Non-Small-Cell Lung Cancer): 95.7%
- GI50 ([5]; Homo sapiens, five-dose): > 100 µM
- IC50 ([5]; Homo sapiens, five-dose): > 100 µM
- LC50 ([5]; Homo sapiens, five-dose): > 100 µM
- TGI ([5]; five-dose): 100.0 µM
- activity at 10 µM ([6]; MDA-MB-468, 10 μM, MDA-MB-468, Breast Cancer, read-out: Growth percentage): -11.1%
- GI50 ([6]; five-dose, MDA-MB-468): 4.1 µM
- IC50 ([6]; five-dose, MDA-MB-468): > 100 µM
- CC50 ([6]; five-dose, MDA-MB-468, read-out: LC50 (the source's name)): > 100 µM
- activity at 10 µM ([7]; Homo sapiens, 10 μM, OVCAR-3, Ovarian Cancer, read-out: Growth percentage): -10.9%
- GI50 [7, 19]: 13.5 µM
- IC50 [7, 19]: > 100 µM
- CC50 ([7]; Homo sapiens, five-dose, OVCAR-3, read-out: LC50 (the source's name)): > 100 µM
- TGI ([7]; five-dose, OVCAR-3): 100.0 µM
- activity at 10 µM ([8]; Homo sapiens, 10 μM, HCC-2998, Colon Cancer, read-out: Growth percentage): -29%
- GI50 [8, 20]: 1.4 µM
- IC50 [8, 20]: 8.5 µM
- CC50 ([8]; Homo sapiens, five-dose, HCC-2998, read-out: LC50 (the source's name)): > 100 µM
- TGI ([8]; five-dose, HCC-2998): 0.42 µM
- activity at 10 µM ([9]; Homo sapiens, 10 μM, SK-MEL-2, Melanoma, read-out: Growth percentage): -15.4%
- GI50 [9, 21]: > 100 µM
- IC50 [9, 21]: > 100 µM
- CC50 ([9]; Homo sapiens, five-dose, SK-MEL-2, read-out: LC50 (the source's name)): > 100 µM
- TGI ([9]; five-dose, SK-MEL-2): 100.0 µM
- activity at 10 µM ([10]; Homo sapiens, 10 μM, Renal Cancer, read-out: Growth percentage): 27.7%
- GI50 ([10]; Homo sapiens, five-dose): > 100 µM
- IC50 ([10]; Homo sapiens, five-dose): > 100 µM
- CC50 [10, 18]: > 100 µM
- TGI ([10]; five-dose): 100.0 µM
- IC50 ([11]; Homo sapiens, RPMI-8226, RPMI-8226): 0.3 µM
- IC50 ([11]; Homo sapiens, RPMI-8226, five-dose, RPMI-8226): 0.34 µM
- GI50 ([11]; Homo sapiens, five-dose, RPMI-8226): 0.19 µM
- CC50 ([11]; Homo sapiens, five-dose, RPMI-8226, read-out: LC50 (the source's name)): 0.6 µM
- TGI ([11]; five-dose, RPMI-8226): 2.63 µM
- activity at 10 µM ([12]; Homo sapiens, 10 μM, Non-Small-Cell Lung Cancer, read-out: Growth percentage): 65.8%
- GI50 ([12]; Homo sapiens, five-dose): > 100 µM
- IC50 ([12]; Homo sapiens, five-dose): > 100 µM
- CC50 [12, 18]: > 100 µM
- TGI ([12]; five-dose): 7.94 µM
- activity at 10 µM ([13]; Homo sapiens, HL-60, 10 μM, HL-60(TB), Leukemia, read-out: Growth percentage): -99.8%
- IC50 ([13]; Homo sapiens, HL-60, five-dose, HL-60(TB)): 2.9 µM
- IC50 ([13]; Homo sapiens, HL-60, leukemia HL-60): 3.7 µM
- GI50 ([13]; Homo sapiens, five-dose, HL-60(TB)): 1.78 µM
- CC50 ([13]; Homo sapiens, five-dose, HL-60(TB), read-out: LC50 (the source's name)): 11 µM
- TGI ([13]; five-dose, HL-60(TB)): 3.8 µM
- SI ([14]; full-panel MG-MID / subpanel MG-MID, Non-Small-Cell Lung Cancer): 0.81
- MG-MID ([14]; mean activity across subpanel Non-Small-Cell Lung Cancer): 86.5 µM
- activity at 10 µM [15]: -25.9%
- activity at 10 µM ([16]; Homo sapiens, 10 μM, SW-620, Colon Cancer, read-out: Growth percentage): 3.2%
- GI50 [16, 22]: 3.7 µM
- IC50 [16, 22]: 4.7 µM
- CC50 ([16]; Homo sapiens, five-dose, SW-620, read-out: LC50 (the source's name)): > 100 µM
- TGI ([16]; five-dose, SW-620): 100.0 µM

Reference: article PMC12655637, “Design, Synthesis, and Mechanistic Study of Novel Ciprofloxacin/Thiazole Chalcone Hybrids as Potential Anticancer Agents” (Pharmaceuticals, 2025)
